The text below walks through data of article PMC8881610 (Nature Communications, 2022).

What all share (assay): cAMP accumulation assay (LANCE Ultra cAMP kit), GIPR WT, mutant or modified constructs
Holding throughout (type): cell-based
Set-up in all cases: acylated tirzepatide to the full-length or modified; Flag; expressed in transfected cells; host or cells: HEK293T
On the technique in general: Cyclic AMP is a second messenger, typically raised through Gs and lowered through Gi signalling.

Assay [1] has as its target T1, GIPR (Homo sapiens, UniProt P48546, R192A).
T1 sequence (P48546 22-466 R192A): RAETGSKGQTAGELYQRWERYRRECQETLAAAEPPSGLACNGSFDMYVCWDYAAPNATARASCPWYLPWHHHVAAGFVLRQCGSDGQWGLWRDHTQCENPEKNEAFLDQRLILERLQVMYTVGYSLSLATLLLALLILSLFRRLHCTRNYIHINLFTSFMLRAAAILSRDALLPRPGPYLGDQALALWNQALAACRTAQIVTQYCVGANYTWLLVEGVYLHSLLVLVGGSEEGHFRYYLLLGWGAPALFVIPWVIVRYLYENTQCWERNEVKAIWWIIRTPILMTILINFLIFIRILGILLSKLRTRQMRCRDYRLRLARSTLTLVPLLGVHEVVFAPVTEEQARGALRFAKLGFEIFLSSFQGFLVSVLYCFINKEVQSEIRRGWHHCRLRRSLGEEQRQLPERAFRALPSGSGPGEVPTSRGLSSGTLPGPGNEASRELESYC
The conditions noted are these: GIPR R192A, HEK293T. Summed up: (§1)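 HEK293T cells transiently transfected with human GIPR WT or mutant constructs (pcDNA3.1), used after 24 h. The cells were stimulated with peptide agonists for 40 min at RT in HBSS with 5 mM HEPES, 0.1% BSA or casein, and 0.5 mM IBMX. cAMP was read by LANCE Ultra TR-FRET (Eu-cAMP tracer/ULight anti-cAMP, 1 h RT, 620/650 nm).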

The target in assay [2] is T2, GIPR (Homo sapiens, UniProt P48546, D191A).
T2 sequence (P48546 22-466 D191A): T1 sequence (P48546 22-466 R192A) with D170A, A171R
The conditions noted are these: HEK-293T, GIPR D191A; HEK293T. Summed up: as §1

For assay [3], the target named is T3, GIPR (Homo sapiens, UniProt P48546, F127A).
T3 sequence (P48546 22-466 F127A): T1 sequence (P48546 22-466 R192A) with F106A, A171R
The conditions noted are these: GIPR F127A, HEK293T. The method in brief:
as §1

[4] abbreviates: read-out: cAMP pEC50 (converted).

Structures are written as SMILES. Changes are numbered by the printed parent chain.

In general, Emax refers to the maximal effect, on the per cent scale that the assay sets. With `CCCCCCCCCCCCCCCC(=O)N[C@@H](CCC(=O)NCCCC[C@H](NC(=O)[C@H](CC(=O)O)NC(=O)[C@H](CO)NC(=O)[C@@H](NC(=O)[C@H](Cc1ccccc1)NC(=O)[C@@H](NC(=O)CNC(=O)[C@H](CCC(N)=O)NC(=O)C(C)(C)NC(=O)[C@@H](N)Cc1c[nH]cn1)[C@@H](C)O)[C@@H](C)O)C(=O)N[C@@H](CO)C(=O)N[C@@H](CCCCN)C(=O)N[C@@H](Cc1ccc(O)cc1)C(=O)N[C@@H](CC(C)C)C(=O)N[C@@H](CC(=O)O)C(=O)N[C@@H](CCC(=O)O)C(=O)N[C@@H](CCCNC(=N)N)C(=O)N[C@@H](C)C(=O)N[C@@H](C)C(=O)N[C@@H](CCC(N)=O)C(=O)N[C@@H](CC(=O)O)C(=O)N[C@@H](Cc1ccccc1)C(=O)N[C@H](C(=O)N[C@@H](CCC(N)=O)C(=O)N[C@@H](Cc1c[nH]c2ccccc12)C(=O)N[C@@H](CC(C)C)C(=O)N[C@@H](CC(C)C)C(=O)N[C@@H](CC(=O)O)C(=O)NCC(=O)NCC(=O)N1CCC[C@H]1C(=O)N[C@@H](CO)C(=O)N[C@@H](CO)C(=O)NCC(=O)N[C@@H](C)C(=O)N1CCC[C@H]1C(=O)N1CCC[C@H]1C(=O)N1CCC[C@H]1C(=O)N[C@@H](CO)C(N)=O)C(C)C)C(=O)O` [Peptide 20], the EC50 in assay [1] (setting [4]) is 0.0302 nM; in assay [3] (setting [4]), 0.00457 nM. The figures for the Emax in assay [1] (HEK-293T), in assay [2] and in assay [3] (HEK-293T) were 101 ± 1.91%, 51.7 ± 5.96% and 100 ± 1.64%, respectively.
